From patent US20220313170A1, “METHOD OF INCREASING COGNITIVE FUNCTION WITH GLUTAMATE RECEPTOR AGONIST” (priority 2019, published 2022)

How the values were obtained:
[1] = system: subjects with schizophrenia; experiment: Correlation of pre-treatment resting-state EEG metrics (power law exponent, beta power) with response to poma treatment (MCCB domain scores), clinical trials NCT00845026 and NCT01052103; assay type: in vivo, human; conditions: subgroups of patients identified by EEG metrics (Examples 1-3)
Source text: The power spectrum of resting state EEG signals, when viewed in the frequency domain (that is, with frequency of oscillation on the x-axis and power on the y-axis), forms roughly a straight line, when viewed on a log-log plot; see FIG.5 (from Miller et al. […] PLoS Comput Biol 5(12): e1000609)
Mathematically, this can be expressed as log (P)=k−βlog (f), or equivalently, P αf−β1/fβ), where P=power, f=frequency, −β is the slope of the fitted line, and k is a constant. This phenomenon is known by various terms, such as a “power law” spectrum or “1/f noise”. It is often referred to as “scale invariant” or “fractal” behavior (Lowen and Teich, 2005), as the power law exponent, β, is constant regardless of the resolution at which it is calculated.
This study used data from clinical trials NCT00845026 (N=117) and NCT01052103 (N=196), which studied male and female subjects with schizophrenia treated with poma vs. antipsychotic agent standard of care. […] We calculated only power at the stimulated frequency and, for recordings in the resting state, the power law exponent (PLE; also known as the “fractal exponent”). […] We calculated all predictive measures for each EEG electrode. […]

[2] = system: subjects with schizophrenia; conditions: cited from earlier work
[3] = humans; cited from earlier work

Compound	Cognitive function in measures of working memory, reasoning/problem solving, and attention/vigilance [1]	Efficacy versus placebo as determined with PANSS total scores ([2]; clinical studies, halted)	Dosage shown to be efficacious ([2]; early phase II monotherapy trial) [mg BID]	Oral absorption and bioavailability [3]
CSCC[C@H](N)C(=O)N[C@@]1(C(=O)O)CS(=O)(=O)[C@H]2[C@H](C(=O)O)[C@H]21 [poma, Pomaglumetad methionil]	significant improvement in cognitive function	not significantly more efficacious than the placebo	40	–
N[C@@]1(C(=O)O)CS(=O)(=O)[C@H]2[C@H](C(=O)O)[C@H]21 [pomaglumetad]	–	–	–	low
